# Values joined by “and” are separate entries in the source; they are usually repeats but may differ in a detail not shown here. Equal entries are not always repeated.
# Assays:
# Chymase (Homo sapiens) [1] = target: T1, Chymase (Homo sapiens) (UniProt P23946); test: Inhibitory activity against serine protease chymase was determined
# T1 sequence (whole entry): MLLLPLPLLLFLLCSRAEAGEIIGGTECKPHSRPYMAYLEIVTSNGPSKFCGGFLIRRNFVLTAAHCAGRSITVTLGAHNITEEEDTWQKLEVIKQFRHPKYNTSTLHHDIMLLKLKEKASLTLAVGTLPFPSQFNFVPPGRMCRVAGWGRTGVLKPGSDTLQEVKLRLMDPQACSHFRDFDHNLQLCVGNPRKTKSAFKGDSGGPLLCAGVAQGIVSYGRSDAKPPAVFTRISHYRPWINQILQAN
# Chymase (Homo sapiens) [2] = target: T1, Chymase (Homo sapiens); test: Inhibitory activity against serine protease chymase was determined at 1 uM
# [3] = Percent compound remaining in human plasma after incubation for 60 min at 37 C.; assay type: ADME, cell-free; settings: read-out: Stability
# Chymase = target: T2, Chymase (Homo sapiens, UniProt P23946); test: Inhibitory concentration against serine protease chymase was determined
# T2 sequence (P23946 whole entry): T1 sequence (whole entry)
# [4] = Percent remaining in human plasma after incubation for 60 min at 37 C.; assay type: ADME, cell-free; settings: read-out: Stability
Inhibitory activity (Chymase (Homo sapiens) [1]) [µM],further results,Structure (SMILES)
3.46,–,O=c1n(S(=O)(=O)c2ccc3ccccc3c2)c2ccccc2n1S(=O)(=O)c1ccc2ccccc2c1
0.683,–,Cc1ccc(/C=C2\SC(=O)N(C(=O)c3cccc(-c4ccccc4)c3)C2=O)o1
0.308,–,O=C(Nc1nnc(Sc2nc3ccccc3s2)s1)c1ccc(Cl)cc1
53,–,O=C1ON(C(=O)c2ccc3ccccc3c2)C(=O)/C1=C/c1ccc(O)c(O)c1
141,–,Cc1ccc(/C=C2\SC(=O)N(CSc3ccc4ccccc4c3)C2=O)o1
0.61,–,COC(=O)c1ccc(C(=O)n2cnc3cc4ccccc4cc3c2=O)cc1
0.097,–,Cc1ccc(/C=C2\SC(=O)N(C(=O)c3ccc4ccccc4c3)C2=O)o1
75,–,Cc1ccc(C(=O)Nc2nnc(C(=O)c3ccccc3)s2)cc1
24,–,Cc1ccc(/C=C2\SC(=O)N(CS(=O)(=O)c3ccc4ccccc4c3)C2=O)o1
27,–,O=C(Nc1nnc(SCc2nc3ccccc3s2)s1)c1ccc(Cl)cc1
14,–,O=C(Nc1nnc(Sc2nc3ccccc3s2)s1)C(Cl)(Cl)Cl
273,–,O=C1SC(Cc2ccc3ccccc3c2)C(=O)N1Cc1ccoc1 (centres undefined)
–,inhibition (Chymase (Homo sapiens) [1]; concentration not given here): 17.8%; inhibition (Chymase (Homo sapiens) [2]): > 30%; remaining at 1 h [3]: 11.8%,O=C(Oc1ccc(Cl)cc1)c1cnc(C2COc3ccccc3O2)s1 (centres undefined)
1.34,–,O=C(Nc1nnc(Sc2nc3ccccc3s2)s1)c1ccccc1
4.54,–,Cc1ccc(/C=C2\SCCN(C(=O)c3ccc4ccccc4c3)C2=O)o1
0.081,–,O=C1S/C(=C\c2ccsc2)C(=O)N1C(=O)c1ccc2ccccc2c1
4.22,–,COC(=O)C(c1ccc2ccccc2c1)N1C(=O)S/C(=C\c2ccc(C)o2)C1=O (centres undefined)
–,IC50 (Chymase): 909 nM; inhibition (Chymase (Homo sapiens) [2]): > 30%; remaining at 1 h [3]: 100%,CCCS(=O)(=O)c1ccc(NS(=O)(=O)c2sc3ccc(Cl)cc3c2C)cc1
3.6,–,O=C(Oc1ccccc1)N1C(=O)S/C(=C\c2ccco2)C1=O
176,–,O=C1c2ccccc2C(=O)N1S(=O)(=O)c1ccc2ccccc2c1
87,–,Cc1ccc(-c2nnc(NC(=O)c3ccc4ccccc4c3)s2)o1
8.91,–,Cc1ccc(/C=C2\SC(C)(C)N(C(=O)c3ccc4ccccc4c3)C2=O)o1
48,–,Cc1ccc(C(=O)Nc2nnc(SC(=O)c3ccc(C)cc3)s2)cc1
0.691,–,O=C1S/C(=C/c2ccc(O)cc2)C(=O)N1S(=O)(=O)c1ccc2ccccc2c1
3.24,–,Cc1ccc(C(=O)Sc2nnc(SC(=O)c3ccc(C)cc3)s2)cc1
–,inhibition (Chymase (Homo sapiens) [2]): 36.5% and > 30%; remaining at 1 h [4]: 6.4%,CSc1[nH]nc(NC(=O)c2ccc(Cl)cc2)c1S(=O)(=O)c1ccc(Cl)cc1
321,–,Clc1ccc(CNc2nnc(Sc3nc4ccccc4s3)s2)cc1
608,–,O=C1ON(S(=O)(=O)c2ccc3ccccc3c2)C(=O)/C1=C/c1ccc(F)cc1
190,–,Cc1ccc(/C=C2\SC(=O)N(Cc3ccc4ccccc4c3)C2=O)o1
